Earlier results in patent US11439593B2, “Composition for treating onychomycosis” (NCP NewCare Products GmbH, priority 2017, dated 2022).
Like-named read-outs stand apart in the source and are kept apart here.

SMILES | stability in acidic environment (pH of about 5) | stability in acidic environment (pH of about 3)
Clc1ccccc1C(c1ccccc1)(c1ccccc1)n1ccnc1 [clotrimazole] | stable | –
Clc1ccc(COC(Cn2ccnc2)c2ccc(Cl)cc2Cl)c(Cl)c1 (centres unmarked) [miconazole] | – | stable
c1ccc(-c2ccc(C(c3ccccc3)n3ccnc3)cc2)cc1 (centres unmarked) [bifonazole] | stable | –
Cc1cc(C2CCCCC2)n(O)c(=O)c1 [ciclopirox] | – | stable
CN(C/C=C/C#CC(C)(C)C)Cc1cccc2ccccc12 [terbinafine] | – | stable
